This test deals with Aluminum chloride induced neurotoxicity in Wistar rats. Description: Aluminum chloride induced neurotoxicity in rats: MDA in brain. Type of test: in vivo. As for the experimental part:
[formula] I.3. Evaluation of Neuro-Protective Effects of the Hydro-Ethanolic Extract of B. toxisperma Against Aluminum Chloride Induced Neurotoxicity (Animal Model of Neurotoxicity)
Twenty albinos Wistar rats weighing between 230-250 g were used for this experiment in which the treatment lasted 3 days. The experimentation was conducted in the animal house of the Laboratory of Nutrition and Nutritional Biochemistry of the department of Biochemistry (Faculty of Science, University of Yaounde I). Animals were fed with standard feed and drinking water ad libitum.
Rats were divided into 5 groups of 4 rats each. A unique dose of 32.5 mg/kg BW of aluminum trichloride (AlCl3) was administered by intra peritoneal (i.p) route. […]
PROTOCOL: 100 μL of homogenate and 400 μL of TBA reagent (annex 3b) were introduced into glass test tubes (blank and assay) which were tightly corked. […] The tubes were later opened for any gas to evaporate before centrifugation for 5 minutes at 1500 revs/minute and the absorbance of the liquid phase was read at 532 nm against a blank which contained 400 μL of reagent solution and 100 μL of NaCl 0.9% incubated in similar conditions. The concentration of MDA was determined using it molar extinction coefficient (ε=1.53×10^5 M^−1·cm^−1) and the following formula.

Data on one substance can be found in patent publication US11684646B2, “Methods and related compositions for reducing oxidative stress” (Gateway Health Alliances, Inc., priority 2019, dated 2023).

Take Vitamin E: the “effect on MDA level in rats compared with the positive control (PC)” value (HEEBT 150 and 300 mg/kg BW, vitamin E, p<0.05) is on record as “significantly (p<0.05) reduced”. Besides, the MDA (brain of rats, AlCl3 32.5 mg/kg i.p., Vit E 100 mg/kg BW/day oral, 3 days (VE100)) was determined as 4.631 ± 0.652 µM.
